{
  "source": "patent US20260345571A1",
  "about": "“DELAMANID-CONTAINING SOLID DISPERSION” (priority 2022, published 2026)",
  "origin": "cited, not measured here",
  "key": {"[1]": {"tested_on": "atypical mycobacteria", "settings": "PTL 1"}, "[2]": {"settings": "melting point about 195 °C (decomposition)"}, "[3]": {"tested_on": "Mycobacterium tuberculosis", "settings": "PTL 1"}},
  "data": [
    {"smiles": "C[C@]1(COc2ccc(N3CCC(Oc4ccc(OC(F)(F)F)cc4)CC3)cc2)Cn2cc([N+](=O)[O-])nc2O1", "note": "[Delamanid, (2R)-2-methyl-6-nitro-2-[(4-{4-[4-(trifluoromethoxy)phenoxy]piperidin-1-yl}phenoxy)methyl]-2,3-dihydroimidazo[2,1-b]oxazole]", "values": [
      {"measurement": "Bactericidal action against atypical mycobacteria", "setting": "[1]", "result": "excellent bactericidal action"},
      {"measurement": "Thermal stability", "setting": "[2]", "result": "poor thermal stability"},
      {"measurement": "Bactericidal action against Mycobacterium tuberculosis", "setting": "[3]", "result": "excellent bactericidal action"}
    ]}
  ]
}
